The record followed here is ChEMBL document CHEMBL1146163 (Bioorg Med Chem Lett, 2006).

Series [1] concerns the target T1, Peroxisome proliferator-activated receptor alpha (Homo sapiens) (UniProt Q07869).
T1 sequence (whole entry): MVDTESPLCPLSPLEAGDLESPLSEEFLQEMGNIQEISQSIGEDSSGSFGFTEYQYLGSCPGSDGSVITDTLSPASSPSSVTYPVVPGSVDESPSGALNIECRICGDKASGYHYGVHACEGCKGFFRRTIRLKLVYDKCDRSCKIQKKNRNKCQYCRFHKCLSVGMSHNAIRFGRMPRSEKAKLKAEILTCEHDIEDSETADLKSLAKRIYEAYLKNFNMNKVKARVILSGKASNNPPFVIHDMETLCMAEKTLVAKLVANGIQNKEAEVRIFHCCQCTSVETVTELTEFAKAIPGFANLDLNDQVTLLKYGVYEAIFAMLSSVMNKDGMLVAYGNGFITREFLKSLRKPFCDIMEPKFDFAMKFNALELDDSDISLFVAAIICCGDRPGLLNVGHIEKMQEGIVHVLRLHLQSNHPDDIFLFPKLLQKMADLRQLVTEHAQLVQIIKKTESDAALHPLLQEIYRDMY
Description: (§1) Displacement of tritium labeled ligand from human PPARalpha by SPA assay.

In series [2] the target is T1, Peroxisome proliferator-activated receptor alpha (Homo sapiens). As to the kind of experiment: Activity at human PPARalpha expressed in CV1 cells using GAL4 chimeric system relative to control. Conditions: CV-1. Format: cell-based.
Series [3] has as its target T2, Peroxisome proliferator-activated receptor alpha (Homo sapiens, UniProt Q07869).
T2 sequence (Q07869 whole entry): T1 sequence (whole entry)
The series is described as §1.

The test system of series [4] is Mus musculus. As to the kind of experiment: Reduction of glucose level in db/db mouse at 30 mg/kg, po after 7 days relative to control. It is filed as functional. On the set-up: scale not given: the % may be the effect or the level left.
For series [5], the target named is T3, Peroxisome proliferator-activated receptor gamma (Homo sapiens, UniProt P37231).
T3 sequence (P37231 whole entry): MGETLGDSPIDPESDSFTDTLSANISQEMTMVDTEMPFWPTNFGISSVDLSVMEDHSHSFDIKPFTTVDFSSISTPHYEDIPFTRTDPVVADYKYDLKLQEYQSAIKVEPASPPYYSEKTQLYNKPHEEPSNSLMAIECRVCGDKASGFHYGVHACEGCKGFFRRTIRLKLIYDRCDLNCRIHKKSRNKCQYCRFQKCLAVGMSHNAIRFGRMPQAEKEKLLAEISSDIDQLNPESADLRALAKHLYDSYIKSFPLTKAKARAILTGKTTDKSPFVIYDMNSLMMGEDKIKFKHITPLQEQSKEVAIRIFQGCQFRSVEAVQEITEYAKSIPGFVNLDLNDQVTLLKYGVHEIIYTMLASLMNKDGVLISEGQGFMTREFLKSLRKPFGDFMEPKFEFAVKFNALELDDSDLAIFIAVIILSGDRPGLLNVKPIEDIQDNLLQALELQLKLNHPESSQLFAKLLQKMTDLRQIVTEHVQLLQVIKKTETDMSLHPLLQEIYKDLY
Description: Displacement of tritium labeled ligand from human PPARgamma by SPA assay

Series [6] has as its system Rattus norvegicus. As to the kind of experiment: Effect on glucose normalization in po dosed ZDF rat after 7 days. It is filed as functional. Conditions: 168 h, read-out: MED.
Series [7] deals with T4, Peroxisome proliferator-activated receptor delta (Homo sapiens, UniProt Q03181).
T4 sequence (Q03181 whole entry): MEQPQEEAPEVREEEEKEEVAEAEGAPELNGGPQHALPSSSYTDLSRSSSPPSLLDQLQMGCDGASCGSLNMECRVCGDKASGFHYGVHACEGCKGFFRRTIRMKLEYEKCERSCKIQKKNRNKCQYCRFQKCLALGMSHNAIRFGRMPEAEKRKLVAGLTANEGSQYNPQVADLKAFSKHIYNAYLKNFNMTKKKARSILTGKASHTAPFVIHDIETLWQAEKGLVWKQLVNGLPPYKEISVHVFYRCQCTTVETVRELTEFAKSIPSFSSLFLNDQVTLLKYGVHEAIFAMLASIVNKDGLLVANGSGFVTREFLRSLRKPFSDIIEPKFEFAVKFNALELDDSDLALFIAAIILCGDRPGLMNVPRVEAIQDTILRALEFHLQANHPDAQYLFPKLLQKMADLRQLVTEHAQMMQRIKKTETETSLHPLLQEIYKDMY
As to the kind of experiment: Activity at PPARdelta.

Series [8] concerns Rattus norvegicus. As to the kind of experiment: Reduction of plasma triglyceride level in ZDF rat at 1 mg/kg, po after 7 days relative to control. It is filed as functional. Conditions: 168 h.
Series [9] can be described thus: Half life in F344 rat at 1 mg/kg, iv. Conditions: in vivo. Format: ADME, organism-based. On the set-up: dose 1 mg/kg, route intravenous.
Series [10] is described as follows: Volume of distribution in F344 rat at 1 mg/kg, iv. Format: ADME, organism-based. Details: dose 1 mg/kg, route intravenous. Conditions: in vivo, read-out: Vdss.
A short description of series [11]: Clearance in F344 rat at 1 mg/kg, iv. It is filed as ADME, organism-based. On the set-up: dose 1 mg/kg, route intravenous. The note with it: in vivo.
The nature of series [12]: Tmax in F344 rat at 10 mg/kg, po. It is filed as ADME, organism-based. Details: dose 10 mg/kg, route oral. The note with it: in vivo.
Series [13] is described as follows: Oral bioavailability in F344 rat at 10 mg/kg, po. It is filed as ADME, organism-based. The note with it: in vivo.
Series [14] is described as follows: Half life in Beagle dog at 1 mg/kg, iv. On the set-up: dose 1 mg/kg, route intravenous. It is filed as ADME, organism-based, Canis lupus familiaris. Conditions: in vivo.
The nature of series [15]: Volume of distribution in Beagle dog at 1 mg/kg, iv. Format: ADME, organism-based, Canis lupus familiaris. On the set-up: dose 1 mg/kg, route intravenous. The note with it: in vivo, read-out: Vdss.
Series [16] is described as follows: Clearance in Beagle dog at 1 mg/kg, iv. It is filed as ADME, organism-based, Canis lupus familiaris. On the set-up: dose 1 mg/kg, route intravenous. The note with it: in vivo.
Series [17] can be described thus: Tmax in Beagle dog at 10 mg/kg, po. It is filed as ADME, organism-based, Canis lupus familiaris. On the set-up: dose 10 mg/kg, route oral. The note with it: in vivo.
Series [18] in a line: Oral bioavailability in Beagle dog at 10 mg/kg, po. It is filed as ADME, organism-based, Canis lupus familiaris. Conditions: in vivo.
For series [19], the system named is Rattus norvegicus. As to the kind of experiment: Reduction of glucose level in ZDF rat at 1 mg/kg, po after 7 days relative to control. Details: scale not given: the % may be the effect or the level left. Format: functional.
For series [20], the target named is T5, Peroxisome proliferator-activated receptor delta (Homo sapiens) (UniProt Q03181).
T5 sequence (whole entry): T4 sequence (Q03181 whole entry)
As to the kind of experiment: Activity at human PPARdelta expressed in CV1 cells by cotransfection assay relative to control. Format: cell-based. The note with it: CV-1.

Structures are written as SMILES. The source made the active and inactive calls. The calls are words filed in the database; no cut-off is given here.

`Cc1oc(-c2ccc(-c3ccccc3)cc2)nc1CCOc1ccc(CCC(=O)O)c2c1CCN(C(=O)OCC(C)(C)C)C2` [listing 1 of 2 here]: in series [1], the outcome was inactive and the Efficacy is less than 20%. In addition, the Efficacy in series [2] turned out to be 18%.

In the case of `CCCOC(=O)N1CCc2c(OCCc3nc(-c4ccccc4)oc3C)ccc(CCC(=O)O)c2C1` [listing 1 of 2 here], in [3], the EC50 (in general, the concentration needed to bring the measured effect to its halfway point) came to 561 nM and the concentration for half-maximal inhibition (IC50) (usually the concentration needed to halve the response being measured) was determined as 4680 nM. The Activity in [4] is listed as 62%. In addition, in [5], the EC50 worked out at 12 nM and the IC50 came to 11 nM.

Consider `Cc1oc(-c2ccccc2)nc1CCOc1ccc(CCC(=O)O)c2c1CCN(C(=O)OCC(C)C)C2`, for which the EC50 in series [3] was determined as 1720 nM; in series [5] it was 8 nM. Moreover, the IC50 in series [3] turned out to be 3420 nM; in [5], 17 nM. This compound also registered an Efficacy in [2] of 40%. In [4], this compound gave an Activity of 27%. The minimal effective dose in series [6] was found to be 0.25 mg/kg.

In the case of `CCCOC(=O)N1CCc2c(OCCc3nc(-c4ccc(-c5ccccc5)cc4)oc3C)ccc(CCC(=O)O)c2C1` [listing 1 of 2 here], the values for the EC50 in series [3], in series [7] and in series [5] were 2390 nM, 2750 nM and 3 nM, respectively. For the same compound, in series [5], the IC50 was 21 nM.

As to `Cc1oc(-c2ccc(-c3ccccc3)cc2)nc1CCOc1ccc(CCC(=O)O)c(CNC(=O)OC(C)C)c1`, in series [2], the Efficacy is 52%.

`CCCOC(=O)N1CCc2c(OCCc3nc(-c4ccc(-c5ccccc5)cc4)oc3C)ccc(CCC(=O)[O-])c2C1.[Na+]` displayed an Activity in [4] of 41%. Besides, in series [6], the minimal effective dose amounted to 0.19 mg/kg. Moreover, in series [8], the 50% effect level (ED50) was put at a dose of 0.24 mg/kg. For the same compound, the half-life (as a rule, the time in which the quantity being followed falls by half) is 5 h in series [9] and 3.58 h in series [14]. Also, the Vd in series [10] was determined as 0.59 L/kg; in series [15], 0.38 L/kg. Moreover, the clearance (commonly the rate of elimination divided by the concentration) stood at 1.37 mL/min/kg in [11] and 1.24 mL/min/kg in series [16]. In addition, the Tmax (in general, the time from dosing to the highest level) in series [12] amounted to 1 h; in series [17], 4 h. The bioavailability (usually the share of a dose that reaches the circulation, judged against a reference dose that is usually intravenous) in series [13] worked out at 35%; in series [18], 37%.

With `CCCOC(=O)N1CCc2c(OCCc3nc(-c4ccccc4)oc3C)ccc(CCC(=O)O)c2C1` [listing 2 of 2 here], the Efficacy in series [2] stood at 47%.

In series [3], `CC(C)(Oc1ccc(C(=O)c2ccc(Cl)cc2)cc1)C(=O)O` [FENOFIBRIC ACID] gave an EC50 of more than 10000 nM and an IC50 of more than 10000 nM. Besides, in series [2], the Efficacy came out at 75%.

With `Cc1oc(-c2ccc(-c3ccccc3)cc2)nc1CCOc1ccc(CCC(=O)[O-])c2c1CCN(C(=O)OCC(C)(C)C)C2.[Na+]`, the Activity is 49% in series [4] and 23% in [19].

`CN(CCOc1ccc(CC2SC(=O)NC2=O)cc1)c1ccccn1` (stereo not drawn) [ROSIGLITAZONE] gave an Activity in series [4] of 29%. The minimal effective dose in [6] came out at 0.25 mg/kg.

For the compound `CCCOC(=O)N1CCc2c(OCCc3nc(-c4ccccc4)oc3C)ccc(CCC(=O)[O-])c2C1.[Na+]`, the minimal effective dose in [6] amounted to 0.28 mg/kg.

As for `Cc1c(C)c2c(c(C)c1O)CCC(C)(COc1ccc(CC3SC(=O)NC3=O)cc1)O2` (stereo not drawn), the result in series [1] was inactive. For the same compound, in series [2], the Efficacy is 0%.

`C#CCOC(=O)N1CCc2c(OCCc3nc(-c4ccccc4)oc3C)ccc(CCC(=O)O)c2C1`: the EC50 stood at 2780 nM in series [3], 3020 nM in series [7] and 77 nM in series [5]. Besides, the results for the IC50 in series [3] and in series [5] were 8400 nM and 24 nM, respectively. In addition, the values for the Efficacy in [2] and in [20] were 38% and 65%, respectively. In series [4], the Activity is recorded as 37%.

For `CCCOC(=O)N1CCc2c(OCCc3nc(-c4ccc(-c5ccccc5)cc4)oc3C)ccc(CCC(=O)O)c2C1` [listing 2 of 2 here], the outcome in series [1] was inactive. For the same compound, the Efficacy in series [2] amounted to 27%; in series [20], 36%.

For `Cc1oc(-c2ccc(-c3ccccc3)cc2)nc1CCOc1ccc(CCC(=O)O)c2c1CCN(C(=O)OCC(C)(C)C)C2` [listing 2 of 2 here], in [5], the EC50 is 9 nM and the midpoint of inhibition, the IC50, lay at 33 nM.

Regarding `Cc1oc(-c2ccccc2)nc1CCOc1ccc(C[C@H](Nc2ccccc2C(=O)c2ccccc2)C(=O)O)cc1`, the Efficacy in series [2] was determined as 66%.
